The record followed here is ChEMBL document CHEMBL3507680, “University of Dundee, Gates Library screen for HepG2 cell viability”.

This series is described as follows: Human HepG2 cell viability assay in 384 well format. It is filed as toxicity, cell-based. The arrangement: dose 125 nL, time 70.5 hour; concentration not given beside the values. As to conditions: HepG2 cells, read-out: Inhibition.
As for `Cc1cnn(CC2CCCN2c2nn3cc(C)nc3s2)c1` (stereo not given), the cytotoxicity at 70.5 h was -4.6%. On to `N[C@H]1CN(C(=O)CCc2ccccn2)C[C@@H]1c1ccccc1`, for which the cytotoxicity at 70.5 h worked out at 4.91%.

Regarding `CCCNc1ccc(C(=O)NCCc2ccc(Cl)cc2)cn1`, the cytotoxicity at 70.5 h is -5.63%. To `COC1CCN(C(=O)c2ccc3ncsc3c2)CC1` belongs -2.33%.

Turning to `CCN1C(=O)CCC12CCN(C(=O)c1ccco1)CC2`, the cytotoxicity at 70.5 h is -11.8%. To `Cc1nc(CNC2CCN(Cc3ccccc3)C2)sc1C` (stereo not given) belongs -4.16%. To `CC(C)COc1cncc(N2CCCN(c3ncccn3)CC2)n1` belongs -7.71%; to `CC1CCCN(S(=O)(=O)N2CCOC3(CCCC3)C2)C1` (stereo not given), 10.1%. The figure for `Cc1cc(-c2cnc(N3CCN(C)CC3)nc2C(C)C)on1` is -3.07%; for `Cn1nc(C2CCN(CC(=O)NC3CC3)CC2)n(-c2ccccc2)c1=O` it is -8.96%; for `Cc1cc(NC(C)Cc2cccs2)n2nccc2n1` (stereo not given) it is -14.7%. As for `Fc1ccc(C2(CNC3=NCCCN3)CCC2)cc1`, the cytotoxicity at 70.5 h was -0.346%. The figure for `CCN(Cc1nc2c(cnn2C)c(=O)[nH]1)c1cccc(C)c1C` is -0.49%.

Consider `Cc1cc(CC(C)NC2CCSCC2)[nH]n1` (stereo not given), for which the cytotoxicity at 70.5 h is -5.1%. To `COCCn1c2c(ccc1=O)CCN(C(=O)C1CC=CC1)CC2` belongs -2.63%; to `CN1C(=O)C2(CCN(c3ncccc3C(=O)O)CC2)c2ccccc21`, -8.18%. For `CC(C)(C)c1cc(CN2CCOC(CN)C2)n[nH]1` (stereo not given), the cytotoxicity at 70.5 h was 2.01%. The figure for `O=C(N[C@@H]1CCN(Cc2cccc3nonc23)C[C@H]1O)c1cccnc1` is -13.7%; for `CC(C)NC(=O)N1CCOC2(CCNCC2)C1` it is -2.57%; for `COc1ccc(CN2C[C@@H]3CN(C(=O)[C@H]4CCCO4)C[C@@H]3C2=O)cc1` it is -4.12%. Regarding `COCC(=O)N1CCN(Cc2cc(-c3ccncc3)nn2C)CC1`, the cytotoxicity at 70.5 h was -3.57%. The figure for `COCc1noc(C2(c3ccc(Cl)cc3)CCOCC2)n1` is -6.8%.

Regarding `CN(CC(=O)N1CCCC1c1ccccn1)Cc1ccccc1` (stereo not given), the cytotoxicity at 70.5 h was -6.16%. The figure for `CCN1C(=O)CC(c2ccccc2)C12CCN(c1ncc(C)cn1)CC2` (stereo not given) is -3.7%; for `COc1ccc(CN2CCCC(N3CCCC3)C2)cc1Cn1cncn1` (stereo not given) it is 10.6%; for `CN1CC(=O)N(c2cnn(C)c2)CC12CCN(Cc1nccn1C)C2` (stereo not given) it is -4.58%. To `CCCS(=O)(=O)N1CCCC1c1cccc(N(C)C)c1` (stereo not given) belongs -11.2%; to `Cc1cnn(C2CCCN(C(=O)CCc3cnn(C)c3)C2)c1` (stereo not given), -4.01%. The figure for `Cc1ccccc1C1(CNC(=O)N2CCC(CC(N)=O)CC2)CC1` is -4.35%; for `CCOCC(=O)N1CCC2(CC1)CC(c1ccccc1)CO2` (stereo not given) it is -2.96%. Take `CSC(C)C(=O)NCCC(=O)N1CCN(c2ccccn2)CC1` (stereo not given): the cytotoxicity at 70.5 h is -3.28%. The figure for `CC(C)S(=O)(=O)N1CCOC(CCc2ccccc2)C1` (stereo not given) is -8.39%; for `Cc1c(C(=O)NCCCC(N)=O)sc2ccc(F)cc12` it is 25.3%. The figure for `C=C1c2ccccc2C(=O)N1CCC(=O)N1CCNC(=O)C1` is 3.89%. With `CCn1nc2ccc(S(=O)(=O)N3CCSCC3)cn2c1=O`, the cytotoxicity at 70.5 h is -9.47%. The figure for `CNc1nc(CNC(=O)Nc2cccc(CN(C)C)c2)cs1` is 0.614%; for `O=C1[C@H]2CN(Cc3ccncc3)C[C@H]2CN1c1cncnc1` it is -0.121%; for `CC(C)NC(=O)Nc1ncc(-c2cccnc2)s1` it is -4.04%.

For the compound `CN(C)CC(=O)N1CCOCC2(C1)CN(c1ccccc1)C(=O)CO2` (stereo not given), the cytotoxicity at 70.5 h was -45.3%. To `Cc1ncc2c(n1)CN(CC(=O)NCCOc1ccccc1)CC2` belongs -11.5%.
